{"source": "patent US5356781A", "about": "“Zymogen activation peptides (ZAP) in the diagnosis of disease” (Bioscience International, Inc., priority 1986, dated 1994)", "molecules": {"B1": {"name": "trypsinogen: zymogen in which the D4 K peptide is C-terminally bound to the protein (protein, UniProt P00760 18-246, looked up)", "pro-form": "VDDDDKIVGGYTCGANTVPYQVSLNSGYHFCGGSLINSQWVVSAAHCYKSGIQVRLGEDNINVVEGNEQFISASKSIVHPSYNSNTLNNDIMLIKLKSAASLNSRVASISLPTSCASAGTQCLISGWGNTKSSGTSYPDVLKCLKAPILSDSSCKSAYPGQITSNMFCAGYLEGGKDSCQGDSGGPVVCSGKLQGIVSWGSGCAQKNKPGVYTKVCNYVSWIKQTIASN", "modifications": "pro-form"}}, "key": {"[1]": {"test_system": "affinity-purified Ca^2+ -dependent antibodies present in sera from rabbit 1 (anti-D4 K)", "test": "Solution phase competitive immunoradiometric assay: competition of binding to 125I-YD4 K, precipitation with second antibody", "conditions": "Ca2+-dependent antibodies from rabbit 1; FIG. 3; read-out: IC50, displacement of binding to 125I-YD4 K", "description": "The relative affinities of affinity-purified Ca^2+ -dependent antibodies present in sera from rabbit 1 for various peptides was examined by determining competition of binding to ^125 I-YD4 K, measured by precipitation with a second antibody, donkey anti-rabbit. […] Some binding to Asp2 Lys was seen.\n100 μl of a 1:250 dilution of anti-D4 K antiserum or a dilution of affinity-purified anti-D4 K antibodies in 50mM Tris-Hcl, 20mM CaCl2, 0.1% (w/v) BSA, pH 7.4 (RIA buffer) were added to 100 μl of ^125 I-YD4 K, (10,000 cpm) in RIA buffer containing 0.2% (v/v) normal rabbit serum in polystyrene tubes. Then 100 μl of solutions containing various concentrations of standard peptides or unknown plasma samples diluted in RIA-buffer were added, followed by 50 μl of donkey anti-rabbit Ig serum (Wellcome Biotechnology) diluted 1:10 with RIA-buffer with 0.2% normal rabbit serum. The mixtures were incubated 18 hours at 4° C., then the tubes were centrifuged at 3,000 rpm for 45 minutes at 4° C., and the supernatants aspirated. The radioactivity in the precipitates was determined in an LKB rack-gamma counter."}, "[2]": {"format": "in vitro ADME", "description": "The stability of APFD4 K and D4 K were examined by incubation with activated pancreatic juice, and the chemical identity of the product examined by high-voltage paper electrophoresis at pH 6.5. […] In three separate experiments, duplicate 65 to 75 mg portions of fresh dog pancreas were placed in modified Bank's medium and incubated in the presence or absence of 100 units enterokinase (Sigma Chem. Co. […]) at 37° C. for 4 hours and 22° C. for a further 20 hours. Duplicate 100 ul samples of culture medium supernatant were taken at intervals, diluted 2:1 with RIA buffer, boiled for 10 minutes and centrifuged. Supernatants were then stored at -20° C. prior to assay for D4 K peptides."}, "[3]": {"test": "Incubation in human serum (immunoreactivity; Sephadex G-100 chromatography)", "format": "in vitro ADME", "description": "Immunoreactive D4 K was unaltered by incubation with undenatured human serum at 37° C. for 6 hours and 4° C. for 48 hours."}, "in vivo": {"test": "in vivo", "conditions": "rat, iv", "procedure": "To determine the fate of circulating peptide, D4 K (0.28 ml, 1 mg/ml) was injected into the left femoral vein of rats under phenobarbital anaesthesia. Blood samples (0.5 ml) were collected every 15 minutes for 2 hours, and subjected to immunoassay."}, "anti-D4 K antibodies": {"biological_target": "anti-D4 K antibodies", "test": "Displacement of 125I-YD4 K binding by trypsinogen with and without enteropeptidase activation", "set-up": "species or system rabbit", "description": "Of great importance to the general principle of the PAP assay of which this is an example, and for the application of these specific anti-D4 K antibodies to the diagnosis of pancreatic disease was the finding that anti-D4 K antibodies were […] on the peptide, and were not displaced by trypsinogen (where the peptide is C-terminally bound to the protein) in concentrations of the zymogen of up to 100 μg/ml. Upon incubation of trypsinogen with enteropeptidase, however, released D4 K-containing activation peptides actively displaced the binding of synthetic ^125 I-YD4 K giving 50% displacement after activation of a 2 μg/ml solution of trypsinogen (FIG. 4). Trypsinogen in native dog pancreatic juice was also activated by enteropeptidase (FIG. 4) releasing immunoreactive D4 K peptides, giving 50% displacement in competitive solution-phase immunoassay after activation of 10^-8 L pancreatic juice. The novel D4 K-specific antibodies described here therefore also provide a new sensitive assay for enteropeptidase and trypsinogen applicable to fluids with endogenous trypsin inhibitors. […]"}}, "note": "Where no end group is shown, it is not given here."}
{"molecule": "N[C@@H](CC(=O)O)C(=O)O", "note": "[Asp, Aspartic Acid]", "values": [{"measurement": "IC50", "setting": "[1]", "value": "> 100", "unit": "µM"}]}
{"molecule": "NCCCC[C@H](N)C(=O)O", "note": "[Lys, Lysine]", "values": [{"measurement": "IC50", "setting": "[1]", "value": "> 100", "unit": "µM"}]}
{"molecule": "APFDDDDK [APFD4 K, Ala-Pro-Phe-Asp-Asp-Asp-Asp-Lys]", "values": [{"measurement": "stability in activated pancreatic juice (identity of product)", "setting": "[2]", "value": "rapidly converted to free Ala, Pro and Phe and D4 K"}]}
{"molecule": "DDDDK [D4 K, Asp-Asp-Asp-Asp-Lys]", "values": [{"measurement": "stability of immunoreactive peptide in undenatured human serum", "setting": "[3]; 4° C. for 48 hours", "value": "unaltered"}, {"measurement": "stability of immunoreactive peptide in undenatured human serum", "setting": "[3]; 37° C. for 6 hours", "value": "unaltered"}, {"measurement": "half-life", "setting": "in vivo", "value": "~15", "unit": "min"}]}
{"molecule": "YDDDDK [YD4 K]", "values": [{"measurement": "complexing with a serum component", "setting": "[3]; Sephadex G-100 chromatography after incubation in human serum", "value": "did not complex with a serum component"}]}
{"molecule": "poly-Asp", "values": [{"measurement": "IC50", "setting": "[1]", "value": "> 100", "unit": "µM"}]}
{"molecule": "B1", "values": [{"measurement": "concentration of solution giving 50% displacement of 125I-YD4 K", "setting": "anti-D4 K antibodies; after incubation of trypsinogen with enteropeptidase, FIG. 4", "value": 2, "unit": "µg/mL"}, {"measurement": "concentration up to which antibodies were not displaced", "setting": "anti-D4 K antibodies; trypsinogen without enteropeptidase activation", "value": "> 100", "unit": "µg/mL"}]}
